In US20260364030A1, “NOVEL SELECTIVE INHIBITORS OF LYSYL OXIDASES” (Syntara Limited, priority 2022, published 2026):

Legend:
systemic LOX = conditions: mouse, in vivo; cited from earlier work
desmoplastic tumour = conditions: mouse, in vivo; cited from earlier work
ovarian cancer = ovarian cancer genetically engineered mouse models; cited from earlier work
[1] = Stability in topical formulation (purity profile at room temperature); assay type: physicochemical; conditions: for % Purity of Compound 1 in topical formulation: 1% Compound 1
[2] = target: T1, Human recombinant SSAO/VAP-1 (Homo sapiens, UniProt Q16853); experiment: Inhibition of human recombinant SSAO/VAP-1, fluorescent Amplex Red assay; assay type: biochemical; conditions: 30 min incubation at 37 °C; benzylamine 600 μM in reaction mixture
T1 construct: a cloned cDNA template corresponding to residues 34-763 of human SSAO/VAP-1; TEV cleavage site (N); made in house; host or cells: CHO-K1 glycosylation mutant cell line, Lee 8 (vector assembled by Geneart AG)
T1 sequence (Q16853 34-763): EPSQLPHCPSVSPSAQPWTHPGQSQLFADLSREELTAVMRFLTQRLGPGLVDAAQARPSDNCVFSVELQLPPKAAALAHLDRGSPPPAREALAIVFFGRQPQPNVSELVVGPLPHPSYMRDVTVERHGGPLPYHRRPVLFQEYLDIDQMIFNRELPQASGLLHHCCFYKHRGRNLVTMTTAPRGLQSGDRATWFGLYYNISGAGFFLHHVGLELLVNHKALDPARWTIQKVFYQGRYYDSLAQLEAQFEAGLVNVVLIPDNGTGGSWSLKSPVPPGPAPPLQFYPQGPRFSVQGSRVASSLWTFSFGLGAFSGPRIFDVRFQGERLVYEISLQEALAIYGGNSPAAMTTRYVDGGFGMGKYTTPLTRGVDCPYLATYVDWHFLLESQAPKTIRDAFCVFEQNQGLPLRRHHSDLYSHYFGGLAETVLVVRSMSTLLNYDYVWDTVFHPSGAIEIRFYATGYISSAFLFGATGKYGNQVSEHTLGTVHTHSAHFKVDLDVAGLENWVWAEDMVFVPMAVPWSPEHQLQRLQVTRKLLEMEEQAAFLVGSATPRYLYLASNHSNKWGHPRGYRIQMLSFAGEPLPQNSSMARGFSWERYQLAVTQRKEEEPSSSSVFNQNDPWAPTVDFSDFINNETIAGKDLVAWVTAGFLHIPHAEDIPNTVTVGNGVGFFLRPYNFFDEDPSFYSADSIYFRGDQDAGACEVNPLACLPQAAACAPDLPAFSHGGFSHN
Method: Human recombinant SSAO/VAP-1 amine oxidase activity was determined using the coupled colorimetric method as described for monoamine oxidase, copper-containing amine oxidases and related enzymes [Holt A. and Palcic M., 2006]. Briefly, a cloned cDNA template corresponding to residues 34-763 of human SSAO/VAP-1, and incorporating a mouse Ig kappa (κ) signal sequence, N-terminal flag epitope tag and tobacco etch virus (TEV) cleavage site, was assembled in a mammalian expression vector (pLO-CMV) by Geneart AG. This vector containing human SSAO/VAP-1 residues was transfected into CHO-K1 glycosylation mutant cell line, Lee 8. A clone stably expressing human SSAO/VAP-1 was isolated and cultured in large scale. Active human SSAO/VAP-1 was purified and recovered using immunoaffinity chromatography. This was used as the source for SSAO/VAP-1 activity. A high-throughput fluorescent assay was developed using either 96 or 384 well format. Briefly, in a standard 384 well plate assay 25 μL of purified human SSAO/VAP-1 (0.25 μg/mL) in 0.1 M sodium phophate buffer (pH 7.4) was added into each well. […] The fluorescence unit (RFU) was read every 2.5 min for 30 min at 37 °C excitation 544 nm and emission 590 (Optima; BMG labtech). The slope/min of the kinetics for each well was calculated using MARS data analysis software (BMG labtech) and this value was used to deduce the IC50 value (Dotmatics).

[3] = Diffusion through human skin, Franz diffusion cell; assay type: in vitro ADME; conditions: topical formulation containing 2% Compound 1
Description: Skin permeability is essential when considering topical application to treat skin conditions. One way to evaluate skin permeability is to use a Franz diffusion cell system with human skin as a membrane (Particle Sciences; Technical Brief 2009; Vol. 10). The donor compound (Compound 1), topically formulated, is applied on the top chamber and diffusion through the skin is monitored at relevant time points by sampling the solution in the receptor chamber via the sampling port. The concentration of Compound 1 was determined by quantitative HPLC analysis.

collagen cross-links = experiment: Rodent injury model (full-thickness skin excision); assay type: in vivo, mice
Method: Mice received injury by excision of full-thickness skin (3 cm^2 on the flank of the mice). In the treatment groups, 4% Compound 1 solution was applied topically, once a day, starting from 24 hours post injury to 1 week post injury. Wounds were then left to heal for an additional week. Mice were euthanized at 4-6 weeks post injury and the tissue was analyzed for collagen content, hydroxyproline as a surrogate marker of collagen content, extracted cross-link biomarkers: HLNL, DHLNL (reduced forms of deH-HLNL and deH-DHLNL respectively), PYD and DPD, elastin content, and changes in gross morphology and histology (using polarised light microscopy, immunohistochemistry, standard staining markers and LCMSMS).

[4] = 4% solution topically once a day, 24 hours to 1 week post injury, vs control (FIG. 4, *=P≤0.05)

% Purity of Compound 1 in topical formulation ([1]; room temperature, t = 3 months, 129600 min) [%]	% Purity of Compound 1 in topical formulation ([1]; room temperature, t = 6 months, 259200 min) [%]	% Purity of Compound 1 in topical formulation ([1]; room temperature, t = 9 months, 388800 min) [%]	% Purity of Compound 1 in topical formulation ([1]; t = 0) [%]	Compound peak percentage in topical formulation ([1]; topical formulation 1, at all tested time points)	IC50 [2] [µM]	Level in the receptor chamber ([3]; after 24 hours (FIG. 2))	Permeability and diffusion through human skin ([3]; time dependent (FIG. 2))	SMILES	Metastasis and survival (systemic LOX)	Metastatic load and survival (desmoplastic tumour)	Survival and lung metastasis (ovarian cancer)	Immature crosslinks (LCMS, normalized for protein content) (collagen cross-links; [4])	Mature crosslinks (LCMS, normalized for protein content) (collagen cross-links; [4])	Collagen cross-links (collagen cross-links; rodent injury model, FIG. 4 (*=P≤0.05))
								N#CCCN [BAPN, β-aminopropionitrile, reference compound]	reducing metastasis and increasing survival	lower metastatic load and increased survival	significantly increased survival and decreased lung metastasis			
99.81	99.82	99.79	99.83	above 99.5%	> 30	high levels	good permeability and diffusion	NC/C(=C\F)CS(=O)(=O)c1ccccc1 [Compound 1, (E)-3-fluoro-2-((phenylsulfonyl)methyl)prop-2-en-1-amine]				reduced	reduced	reduction in collagen cross-links
